Data published in article PMC12015262 (Nature Communications, 2025).
Like-named read-outs stand apart in the source and are kept apart here. Blank lines part the entries; values can stand above or below the compound they belong to. Where a SMILES comes first, the peptide text is derived from it. Bridges are numbered along the chain shown (N, C = ends).

Experiments:
[1] = Pharmacokinetic study, intravenous, male CD-1 mice; format: in vivo
[2] = test system: wild-type ETB; details: previous study; cited from earlier work
[3] = biological target: T1, recombinant human ETB receptor (Homo sapiens, UniProt P24530); format: binding; details: Discussion
T1 sequence (P24530 27-442): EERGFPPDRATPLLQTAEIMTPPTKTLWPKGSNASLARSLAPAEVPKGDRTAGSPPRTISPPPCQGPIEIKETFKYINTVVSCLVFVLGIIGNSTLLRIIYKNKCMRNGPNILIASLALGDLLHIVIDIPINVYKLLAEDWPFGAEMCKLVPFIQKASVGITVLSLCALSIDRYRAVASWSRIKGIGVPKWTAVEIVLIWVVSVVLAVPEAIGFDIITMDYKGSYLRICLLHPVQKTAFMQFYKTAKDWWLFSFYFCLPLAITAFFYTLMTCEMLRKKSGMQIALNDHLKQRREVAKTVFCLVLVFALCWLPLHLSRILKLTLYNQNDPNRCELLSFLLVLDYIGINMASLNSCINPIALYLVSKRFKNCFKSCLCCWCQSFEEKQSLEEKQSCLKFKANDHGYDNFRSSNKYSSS

[4] = biological target: T2, human recombinant ETAR (Homo sapiens, UniProt P25101); details: competition binding
T2 sequence (P25101 21-427): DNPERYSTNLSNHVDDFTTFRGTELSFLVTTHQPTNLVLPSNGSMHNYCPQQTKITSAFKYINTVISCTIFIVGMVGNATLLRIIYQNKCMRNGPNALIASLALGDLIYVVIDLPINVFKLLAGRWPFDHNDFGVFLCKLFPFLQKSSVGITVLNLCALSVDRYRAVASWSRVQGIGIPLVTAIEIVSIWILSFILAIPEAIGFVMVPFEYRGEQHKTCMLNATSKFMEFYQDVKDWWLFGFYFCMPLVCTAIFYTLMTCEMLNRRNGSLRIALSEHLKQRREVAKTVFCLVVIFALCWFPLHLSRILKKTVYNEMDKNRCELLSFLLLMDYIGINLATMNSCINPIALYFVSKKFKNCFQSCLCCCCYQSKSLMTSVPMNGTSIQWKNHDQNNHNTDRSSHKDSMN

[5] = human, s9
[6] = mouse, s9
[7] = biological target: human endothelin type B receptor (ETB), in membranes of CHO cells (human) (UniProt P24530); experiment: radioligand binding

half-life compared with RES-701-3 ([1]; same experiment, IV, mice): nearly tenfold lower half-life
Compound: CCCC[C@@H](NC(=O)[C@@H](Cc1cn(C(=O)OC)c2ccccc12)NC(=O)[C@H](CC(C)(C)C)NC(=O)N1[C@H](C)CCC[C@@H]1C)C(=O)O [BQ-788, Dmpc-γ-MeLeul-D-Trp(1-CO2CH3)-D-Nle-OH, reference compound]

Compound: COc1ccccc1Oc1c(NS(=O)(=O)c2ccc(C(C)(C)C)cc2)nc(-c2ncccn2)nc1OCCO [Bosentan]
effect on receptor activation level of wild-type ETB [2]: does not change the receptor activation level

selectivity for ETB (ETB/ETA) [3]: 50 ×
Compound: Cc1cc(C)cc(C(=O)N(C)[C@H](Cc2ccc(-c3ccccc3)cc2)C(=O)N[C@@H](Cc2c[nH]c3ccccc23)C(=O)O)c1 [IRL2500]

Compound: C[C@@H](O)[C@@H]1NC(=O)CNC(=O)[C@H](Cc2c[nH]cn2)NC(=O)[C@H](Cc2c[nH]c3ccccc23)NC(=O)[C@H](CC(N)=O)NC(=O)CNC(=O)C[C@@H](C(=O)N[C@@H](Cc2c[nH]c3ccccc23)C(=O)N[C@@H](Cc2ccccc2)C(=O)N[C@@H](Cc2ccccc2)C(=O)N[C@@H](CC(N)=O)C(=O)N[C@@H](Cc2ccc(O)cc2)C(=O)N[C@@H](Cc2ccc(O)cc2)C(=O)N[C@@H](Cc2c[nH]c3ccccc23)C(=O)O)NC(=O)[C@@H]2CCCN2C(=O)[C@H](CO)NC1=O [RES-701-3] (GNWHGTSPDWFFNYYW-OH; lactam N-9 (inferred))
activity against ETA [4]: no activity
half-life ([1]; mouse, in vivo, iv, 3 mg/kg, t1/2, 3 mg/kg IV, male CD-1 mice): > 6 h
half-life [5]: > 6 h
half-life [6]: > 6 h

Compound: RES-701-3 T6E (peptide)
fold reduction of affinity against RES-701-3 [7]: 50 fold
